From patent US20120148547A1, “COMBINATION OF VITAMIN E AND BETA-GLYCOSPHINGOLIPIDS IN COMPOSITIONS AND METHODS FOR PREVENTING AND TREATING HEPATIC DISORDERS” (Hadasit Medical Reasearch Services & Development Ltd., priority 2009, published 2012)

Legend:
[1] = test system: acetaminophen-induced liver injury; experiment: Acetaminophen-induced liver injury in mice treated with GC and vitamins, serum ALT and AST (Example 2); type: in vivo, Male C57B1/6 mice; details: 24 hr after acetaminophen; vitamins by gavage, with or without 100 μg GC two hours before acetaminophen
Method: Male C57B1/6 mice (11-12 weeks old) were obtained from Harlan Laboratories (Jerusalem, Israel) and maintained in the Animal Core of the Hadassah-Hebrew University Medical School. β-glucosylceramide (GC) was purchased from Avanti Polar Lipids (Alabaster, Ala., USA). […] Acetaminophen Sigma (cat. # A7085), was dissolved in a mixture of 30% Cremophor EL (Sigma, Rehovot, Israel) and ethanol (1:1) in DDW (Di distilled water). Mice were tested for serum Alanine transaminase (ALT) and Aspartate aminotransferase (AST) at 24 hours after acetaminophen administration. Serum AST and ALT levels were measured by an automatic analyzer. Mice of all groups (eight per group) were fasted for eight hours before oral administration of acetaminophen and for additional four hours after administration. […] Animals were sacrificed after 24 hours, and liver damage was assessed in all groups by examining serum levels of ALT, AST, GSH and TNF-α.

[2] = test system: hepatic NKT cells; experiment: Flow cytometry of hepatic NKT lymphocytes (CD3+NK1.1+) after acetaminophen; type: in vivo, mice; details: pretreatment before acetaminophen
Method: For intrahepatic lymphocytes, livers were first crushed through a stainless mesh (size 60, Sigma) and cell suspension was placed in a 50-mL tube for 5 min to pellet the cell debris. Ten milliliters of Lymphoprep (Ficoll, Axis-Shield PoC AS, Oslo, Norway) was slowly placed under the same volume of cell suspension in 50-mL tubes. The tubes were then centrifuged at 1800 rpm for 18 min. Cells at the interface were collected and transferred to new tubes, which were then centrifuged at 1800 rpm for 10 min, to obtain a cell pellet depleted of hepatocytes in a final volume of 250 μl. Approximately 1×10^6 cells/mouse liver were recovered.
Flow cytometry was performed following lymphocyte isolation using 1×10^6 lymphocytes in 100 μl PBS. […] Pacigic Blue anti mouse CD4, FITC-anti mouse CD8 subsets were also used ((eBioscience, USA). For intracellular staining we used PE-anti mouse CD25 and PE-Cy7 anti mouse FOXp3 (eBioscience, USA). Cells were incubated for 30 min at 4° C. in the dark, and washed and resuspended in 200 μl PBS. Analytical cell sorting was performed on 1×10^4 cells from each group using a fluorescence-activated cell sorter (FACSTAR plus, Becton Dickinson). Only live cells were counted and unstained cells served as controls for background fluorescence. Gates were set on forward- and side-scatters to exclude dead cells and red blood cells. […]

[3] = test system: acetaminophen-induced liver injury; experiment: Acetaminophen-induced liver injury in mice treated with GC, serum ALT and AST (Example 1); type: in vivo, Male C57B1/6 mice; design: ALT levels: unit not given here; details: for ALT levels: p<0.001; for AST levels: control group A 6634, p<0.04
Method: Male C57B1/6 mice (11-12 weeks old) were obtained from Harlan Laboratories (Jerusalem, Israel) and maintained in the Animal Core of the Hadassah-Hebrew University Medical School. β-glucosylceramide (GC) was purchased from Avanti Polar Lipids (Alabaster, Ala., USA). Glycolipids (3.3 mg/ml) were dissolved in a mixture of 30% Cremophor EL (Sigma, Rehovot, Israel) and ethanol (1:1, C:E) in PBS. Acetaminophen Sigma (cat. # A7085), was dissolved in a mixture of 30% Cremophor EL (Sigma, Rehovot, Israel) and ethanol (1:1) in DDW (Di distilled water). […] Serum AST and ALT levels were measured by an automatic analyzer. Beta glycolipides were previously shown by the present inventors as having immunomodulatory effects. […] The inventors therefore next examined whether such effect may also enhance the glutathione system and thereby ameliorate hepatic injury induced by drugs such as acetaminophen. The effect of GC on acetaminophen-induced liver injury was evaluated by examination of liver enzyme (ALT and AST). Three groups of mice, 15 animals per group, were studied. Mice of all groups were fasted for eight hours before oral administration of acetaminophen and for additional four hours after administration. Mice in all groups were administered orally (PO) with 10 mg/330 μl acetaminophen (in C:E gavage administration). In addition, mice were administered with 100 μg β-glucosylceramide (β-GC, in 30 μl of C:E) two hours before administration of acetaminophen (Group B) and every two hours after acetaminophen administration (Group C), Mice in control group A were treated only with oral PBS.

In the case of `O=C1O[C@H]([C@@H](O)CO)C(O)=C1O` [vitamin C, L-Ascorbic acid], the “effect on ALT levels (FIG. 4)” value [1] is reported as “negligible effect”.

For `Cc1c(C)c2c(c(C)c1O)CC[C@@](C)(CCC[C@H](C)CCC[C@H](C)CCCC(C)C)O2` [vitamin E, α-Tocopherol], the “effect on ALT levels (FIG. 4)” value [1] was “negligible effect” and the “change in hepatic NKT cells” value [2] was “became significant”.

Work on β-glucosylceramide [GC] yielded an ALT levels ([3]; 12 hr after acetaminophen 10 mg PO, 100 μg GC every two hours after acetaminophen (Group C), control group A 505) of 364, an ALT levels ([3]; 12 hr after acetaminophen 10 mg PO, 100 μg GC two hours before acetaminophen (Group B), control group A 505) of 332 and an AST levels ([3]; 24 hr after acetaminophen, GC every two hours after acetaminophen (Group C)) of 4029. It also gave an ALT levels ([3]; 24 hr after acetaminophen, GC every two hours after acetaminophen (Group C), control group A 12150) of 5034, an AST levels ([3]; 24 hr after acetaminophen, GC two hours before acetaminophen (Group B)) of 3650 and an ALT levels ([3]; 24 hr after acetaminophen, GC two hours before acetaminophen (Group B), control group A 12150) of 5222. The “change in hepatic NKT cells” value [2] was “small increase”.
